Measurements as given in patent publication US5312816A, “Method of combatting osteoporosis in mammalian subjects, utilizing organic boron compounds” (priority 1993, dated 1994).
Structures can show the parent of a compound that is named as a salt. Where two headings read alike, the source gives them in different places.

Columns and labels:
[1] = system: Elastase; experiment: Mouse macrophage elastase activity; format: cell-based; settings: 60 min incubation, read-out: Elastase IC50
[2] = system: human osteoporosis fibroblastic cells; experiment: Cytotoxicity against growth of human osteoporosis fibroblastic cells; format: cell-based; settings: Fibroblast, Table XX, read-out: Cytoxicity ED-50 Osteoporosis Fibroblasts
[3] = target: T1, Cathepsin D (Mus musculus, UniProt P18242); experiment: Mouse hepatic lysosomal cathepsin D activity; format: biochemical; settings: mouse hepatic, 60 min incubation, read-out: Cathepsin D IC50
T1 construct: azocasein assay pH 5.0
Source text: (§1) 1. Cf1 male mouse hepatic 10% homogenates in 0.25M sucrose+0.001MEDTA,pH 7.2.
(§2) Lysosomal Enzymes - free and total [triton X-100].
(§3) 2. Acid Cathepsin D -azocasein-pH 5.0, hydrolytic azo-peptide produce 366 nm.
Cathepsin azo casein activity -

[4] = system: Cf1 male mice; experiment: Writhing reflex, 0.6% acetic acid; format: in vivo; settings: Mus musculus, ip, Table IV
[5] = system: human osteosarcoma cells; experiment: Cytotoxicity against growth of human osteosarcoma cells; format: cell-based; settings: Table XX; human osteosarcoma (ATCC); read-out: Cytoxicity ED-50 Osteosarcoma
[6] = system: Trypsin; experiment: Mouse macrophage trypsin (BAEE) activity; format: cell-based; settings: 60 min incubation, read-out: Trypsin BAEE IC50
[7] = system: Aryl sulphatase; experiment: Mouse macrophage aryl sulphatase activity; format: cell-based; settings: 60 min incubation, read-out: Aryl Sulphatase IC50
[8] = target: Aryl sulphatase; experiment: Mouse hepatic lysosomal aryl sulphatase activity; format: biochemical; settings: 60 min incubation
Source text: as §1, §2
3. Aryl sulphatase- p-nitrocatechol sulfate, pH
5. 8 p-nitro-catechol product 510 nm.

[9] = target: T2, Prostaglandin synthetase (Bos taurus, UniProt O62664); experiment: Prostaglandin synthetase (cyclooxygenase), purified beef seminal vesicle; format: biochemical; settings: Table IX; commercial enzyme preparation; read-out: Beef Prostaglandin Cyclooxygenase IC50
T2 construct: Prostaglandin synthetase purified beef seminal vesicle; from tissue
T2 sequence (O62664 25-600): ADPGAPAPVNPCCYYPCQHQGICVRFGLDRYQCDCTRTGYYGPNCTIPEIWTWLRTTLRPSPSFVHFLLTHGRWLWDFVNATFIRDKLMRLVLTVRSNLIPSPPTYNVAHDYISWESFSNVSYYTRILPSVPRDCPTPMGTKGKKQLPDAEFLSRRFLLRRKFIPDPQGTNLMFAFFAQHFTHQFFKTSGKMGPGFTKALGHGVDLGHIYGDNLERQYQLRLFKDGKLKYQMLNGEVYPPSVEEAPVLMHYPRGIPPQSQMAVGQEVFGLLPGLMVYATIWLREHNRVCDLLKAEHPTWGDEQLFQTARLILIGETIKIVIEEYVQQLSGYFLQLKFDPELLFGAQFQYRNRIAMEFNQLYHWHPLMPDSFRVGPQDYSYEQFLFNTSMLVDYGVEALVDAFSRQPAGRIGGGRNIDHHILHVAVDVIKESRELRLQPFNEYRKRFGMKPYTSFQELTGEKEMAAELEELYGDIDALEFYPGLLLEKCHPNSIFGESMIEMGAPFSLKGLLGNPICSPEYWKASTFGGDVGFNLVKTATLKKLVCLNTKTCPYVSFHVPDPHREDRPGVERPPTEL
Source text: (§4) Prostaglandin synthetase purified beef seminal vesicle ^3 H arachidonic acid (86.2 Ci/mmol), tlc separation.

[10] = system: Acid phosphatase; experiment: Mouse macrophage acid phosphatase activity; format: cell-based; settings: 60 min incubation, read-out: Acid Phosphatase IC50
[11] = system: Sprague Dawley Rats; experiment: Anti-inflammatory activity in Sprague Dawley rats; format: in vivo; settings: Table IV; 8 mg/kg I.P.
[12] = system: Prostaglandin cyclooxygenase; experiment: Mouse macrophage prostaglandin cyclooxygenase activity; format: cell-based; settings: 60 min incubation, read-out: Prostaglandin Cyclooxygenase IC50
Source text: (§5) 3. Mouse macrophages J774A.1 BALB/c
as §4

[13] = target: Acid phosphatase; experiment: Mouse hepatic lysosomal acid phosphatase activity; format: biochemical; settings: mouse hepatic, 60 min incubation
Source text: as §1, §2
1. Acid phosphatase -beta glycerol-3-phosphate, pH 5.0, released IP 720 nm.
Acid phosphatase activity -

[14] = target: Elastase; experiment: Mouse hepatic elastase activity; format: biochemical; settings: Table VI, 60 min incubation
Source text: as §1
(§6) 2. Elastase- N-succinyl-L-alanyl-L-alanine-p-nitroanilide, pH 8.0, p-nitro anilide 410 nm.
Elastase activity - in vitro

[15] = target: Clostridium histolyticum Collagenase Type I; experiment: Commercial collagenase type I; format: biochemical; settings: Table IX; commercial enzyme preparation
Source text: (§7) 3. Collagenase I, Clostridium histolyticum, bone, skin, tendon, blood vessel, dentine, GI. substrate: rat collagen, N-[propionate-2-3-^3 H] propionylated measured as dpm released.

[16] = target: T3, Pg. cyclooxygenase (Sus scrofa, UniProt A0A287ANF9); experiment: Porcine seminal vesicles Pg. cyclooxygenase; format: biochemical
T3 construct: Porcine Seminal; from tissue; the methods section prints beef seminal vesicle

[17] = system: Cf1 male mice; experiment: Anti-inflammatory screen, Winter's test, 2% carrageenan hind foot; format: in vivo; settings: Table XIV; unit inferred; unit assumed
Method: Anti-inflammatory Screen- Cf1 - male mice-Winter's Test 2% carrageenan S.C. plantar surface of hind foot, drugs administered @8 or 10 mg/kg I.P. 2X
Winter, C.A., et al, Proc. Soc.

[18] = target: T4, Porcine Pancreatic Elastase (Sus scrofa, UniProt P00772); experiment: Porcine pancreatic elastase activity in vitro; format: biochemical; settings: Table IX; commercial enzyme preparation
T4 construct: purchased; host or cells: porcine pancreas
Source text: as §6

[19] = target: T1, Cathepsin D; experiment: Mouse macrophage cathepsin D activity; format: cell-based; settings: 60 min incubation
Source text: as §5, §3

[20] = system: Trypsin; experiment: Mouse hepatic trypsin activity; format: biochemical; settings: 60 min incubation
Source text: as §1
1. Trypsin- N-benzoyl-L-arginine ethyl ester pH 8.0, hydrolytic product 253 nm.

[21] = system: Cf1 male mice; experiment: Writhing reflex, 0.6% acetic acid; format: in vivo; settings: Table XIV; unit inferred; unit assumed
Method: Writhing reflex- Cf1 -male mice- 0.6% acetic acid I.P. drugs administered @20 mg/kg/ I.P. 20 min. later - the # of stretches/10 min.
Hendershot, L.C., et al, J.

[22] = target: Commercial Collagenase; experiment: Commercial collagenase (type not stated); format: biochemical; settings: Table XVI; 60 min incubation
Source text: as §7
4. Collagenase II, Clostridium histolyticum, cartilage collagen.

[23] = system: Cf1 male mice; experiment: Hot plate tail flick test; format: in vivo; settings: Table XIV; unit not given
[24] = system: testes; settings: 250 mg/kg for 16 days; cited from earlier work
[25] = system: urinary excretion of calcium, magnesium, phosphorus; settings: in the diet at 3 mg/day; cited from earlier work
[26] = Table VII, mouse macrophage cultured cells

T1 sequence (P18242 65-410): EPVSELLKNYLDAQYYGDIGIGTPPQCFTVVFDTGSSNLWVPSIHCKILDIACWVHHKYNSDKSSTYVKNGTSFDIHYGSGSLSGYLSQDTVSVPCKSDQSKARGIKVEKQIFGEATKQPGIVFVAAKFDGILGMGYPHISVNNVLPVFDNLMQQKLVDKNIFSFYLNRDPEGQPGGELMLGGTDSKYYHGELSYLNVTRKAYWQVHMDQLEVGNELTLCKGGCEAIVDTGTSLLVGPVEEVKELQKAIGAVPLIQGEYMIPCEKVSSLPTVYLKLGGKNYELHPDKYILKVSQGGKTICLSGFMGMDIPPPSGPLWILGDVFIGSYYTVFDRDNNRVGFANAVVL
T4 sequence (P00772 27-266): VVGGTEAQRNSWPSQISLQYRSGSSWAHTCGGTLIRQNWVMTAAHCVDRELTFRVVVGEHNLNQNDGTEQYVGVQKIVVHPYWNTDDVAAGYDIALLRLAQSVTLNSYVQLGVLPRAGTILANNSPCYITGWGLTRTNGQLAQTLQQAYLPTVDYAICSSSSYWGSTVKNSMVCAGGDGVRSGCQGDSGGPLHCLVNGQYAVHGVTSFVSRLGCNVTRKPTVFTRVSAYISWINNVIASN
T3 sequence (A0A287ANF9 25-600): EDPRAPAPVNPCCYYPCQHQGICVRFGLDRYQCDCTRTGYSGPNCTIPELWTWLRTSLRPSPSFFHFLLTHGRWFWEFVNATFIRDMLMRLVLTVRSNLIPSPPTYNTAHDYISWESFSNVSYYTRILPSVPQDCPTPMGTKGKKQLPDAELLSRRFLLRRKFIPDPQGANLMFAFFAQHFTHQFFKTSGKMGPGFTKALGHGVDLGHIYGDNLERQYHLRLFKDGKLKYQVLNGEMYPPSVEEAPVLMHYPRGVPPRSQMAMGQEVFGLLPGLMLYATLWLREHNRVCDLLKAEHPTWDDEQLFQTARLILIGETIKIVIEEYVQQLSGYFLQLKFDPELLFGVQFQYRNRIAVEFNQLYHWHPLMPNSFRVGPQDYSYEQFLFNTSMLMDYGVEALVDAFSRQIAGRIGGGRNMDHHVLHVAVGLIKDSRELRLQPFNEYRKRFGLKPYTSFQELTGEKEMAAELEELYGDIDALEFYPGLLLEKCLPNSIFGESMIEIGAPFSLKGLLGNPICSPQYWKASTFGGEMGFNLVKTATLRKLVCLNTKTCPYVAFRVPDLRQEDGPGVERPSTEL

## C[N+](C)(C)[BH2-]C(=O)NO [Compound 14, Trimethylamine-boranecarbohydroxamic acid tetraphenylborate salt.]
[1]; Table VIII, mouse macrophages
  IC50: 1490 nM
[2]
  IC50: 1.21 µg/mL
[3]; Table V
  IC50: 3.66 µM
[4]; 8 mg/kg I.P.
  response vs control in vivo at 8 mg/kg: 50%
[5]
  IC50: 1.14 µg/mL
[6]; Table VIII, mouse macrophages
  IC50: 2140 nM
[7]; [26]
  IC50: 1370 nM
[8]; Table V
  IC50: 5.85 µM
[9]
  IC50: 1300 nM
[10]; [26]
  IC50: 3.96 µM
[11]
  Anti-Inflammatory Activity Sprague Dawley Rats: 60 % Control
[12]; Table VIII, mouse macrophages
  IC50: 1610 nM
[13]; Table V
  IC50: 4.22 µM

## C[NH+](C)[BH2-]C(=O)O [Compound 23, Dimethylamine-carboxyborane, sodium salt]
[14]
  IC50: 25.9 µM
[1]; Table VIII, mouse macrophages
  IC50: 2670 nM
[1]; Table XVIII, mouse macrophage
  IC50: 6350 nM
[15]
  IC50: 667 µM
[16]
  IC50: 3.1 µM
[17]
  Anti-Inflammation Cf1 Mice: 68.5%
[3]; Table V
  IC50: 3.76 µM
[3]; Table XV
  IC50: 7.65 µM
[4]
  response vs control in vivo at 20 mg/kg: 2%
[18]
  IC50: 37.3 µM
[6]; Table VIII, mouse macrophages
  IC50: 3100 nM
[6]; Table XVIII, mouse macrophage
  IC50: 2210 nM
[7]; Table XVII, mouse macrophage
  IC50: 1600 nM
[19]; Table VII, mouse macrophage cultured cells, DMEM +10% FCS +P/S, read-out: Cathepsin D IC50
  IC50: 6.39 µM
[19]; Table XVII, mouse macrophage, read-out: Cathepsin D pH 5.0 IC50
  IC50: 2.28 µM
[8]; Table XV
  IC50: 2.83 µM
[20]; Table VI, mouse hepatic, read-out: Trypsin IC50
  IC50: 0.83 µM
[20]; Table XVI, read-out: Mouse Hepatic Trypsin IC50
  IC50: 9.95 µM
[9]
  IC50: 3250 nM
[10]; [26]
  IC50: 4.75 µM
[10]; Table XVII, mouse macrophage
  IC50: 1.42 µM
[21]
  Writhing Reflex Mice: 70.4%
[11]
  Anti-Inflammatory Activity Sprague Dawley Rats: 55 % Control
[22]
  IC50: 506 µM
[23]
  Tail Flick Mice: 156
[12]; Table VIII, mouse macrophages
  IC50: 2910 nM
[12]; Table XVIII, mouse macrophage
  IC50: 2070 nM
[13]; Table V
  IC50: 7.89 µM
[13]; Table XV
  IC50: 3.58 µM

## OB(O)O [boric acid]
[24]
  effect on testes: severe degeneration of the testes with giant cell formation, pyknosis and exfoliation
[25]
  urinary excretion of calcium, magnesium and perhaps phosphorus: blocks the urinary excretion of calcium, magnesium and perhaps phosphorus
